According to patent US8481551B2, “Gyrase and topoisomerase IV inhibitors” (Vertex Pharmaceuticals Incorporated, priority 2011, dated 2013):
Where a name gives a salt, the structure may show the parent alone. Read-outs that look alike come from different tables or passages of the source.

Assays:
[1] = Conversion of Compound W to Compound 23 in liver S9 fractions; assay type: in vitro ADME; conditions: hepatic and intestinal S9 fractions from rats, dogs, monkeys and humans
Description: The incubations were done for 0, 5, 10, 15, 30, 45 or 60 minutes. The formation of Compound 23 was quantified by LC/MS-MS and data were fitted to the Michaelis Menten equation.

[2] = target: S. aureus TopoIV enzyme (Staphylococcus aureus, UniProt P0C1S7); assay: DNA Topo IV ATPase assay; assay type: biochemical; conditions: 64 nM enzyme, 30° C., Morrison Equation fit
[3] = Oral range finding toxicity and toxicokinetic study in male cynomolgus monkeys; assay type: in vivo, Cynomolgus monkeys (Macaca Fascicularis)
From the text: Cynomolgus monkeys (Macaca Fascicularis) were obtained from Primus Bio-Resources Inc. of PinCourt, Quebec, Canada. Cynomolgus monkeys were chosen because they are a non-rodent species that is commonly used for nonclinical toxicity evaluations.
Eight (2 naive and 6 non-naïve) males were used in the study. The animals were young adults and weighed between 2 to 4 kg at the onset of dosing.
The first day of dosing was designated as Day 1 of the study. The actual volume administered to each animal was calculated and adjusted based on the most recent body weight of each animal.
Cage-side clinical signs (ill health, behavioral changes etc.) were recorded at least once daily during the study.
Body weights were recorded for all animals prior to group assignment and on Days 1 (prior to dosing), 3 and 7 as well as terminally prior to necropsy (fasted).
Electrocardiograms (bipolar limb leads I, II and III, and augmented unipolar leads aVR, aVL and aVF) were obtained for all monkeys once during the pre-treatment period and again on Day 7 (post-dosing).
The tracings were assessed for gross changes indicative of cardiac electrical dysfunction. The potential presence of abnormalities involving heart rate (lead II), sinus and atrioventricular rhythm or conductivity were determined. Heart rate, PR interval, QRS duration, QT and QTc intervals values were measured.
A series of 7 blood samples (approximately 0.5 mL each) were collected from each monkey on Days 1 and 7 at the following time points: predose, 30 minutes and 2, 3, 6, 12 and 24 hours post-dose. […] Tubes were placed on wet ice until ready for processing. […]
The following parameters were measured on blood samples collected into EDTA anticoagulant: red blood cell count, mean corpuscular hemoglobin (calculated), hematocrit (calculated), mean corpuscular volume, hemoglobin, morphology of cells, white blood cell count, platelet count, white blood cell differential (absolute), reticulocyte (absolute and percentage) and mean corpuscular hemoglobin concentration (calculated).
Activated partial thromboplastin time and prothrombin time were measured on blood samples collected into citrate anticoagulant.
The following parameters were measured on blood samples collected into tubes containing clotting activator: a/g ratio (calculated), creatinine, alanine aminotransferase, globulin (calculated), albumin, glucose, alkaline phosphatase, phosphorus (inorganic), aspartate aminotransferase, potassium, bilirubin (total), sodium, calcium, total protein, chloride, triglycerides, cholesterol (total), urea, gamma glutamyltransferase and sorbitol dehydrogenase.
The following parameters were measured on urine samples: bilirubin, protein, blood, sediment microscopy, color and appearance, specific gravity, glucose, urobilinogen, ketones, volume and pH. […]

[4] = tested on: M. abscessus; assay: MIC determination procedure for Mycobacterium species (Protocol 4); assay type: cell-based; conditions: Mycobacteroides abscessus
[5] = tested on: M. kansasii; assay: as above; assay type: cell-based
[6] = tested on: Mycobacterium avium; assay: as above; assay type: cell-based
[7] = tested on: Stenotrophomonas maltophilia; assay: Gyrase MIC against Gram negatives, microdilution broth method (Protocol 2); assay type: cell-based
[8] = tested on: Mycobacterium tuberculosis; assay: Mycobacterium tuberculosis serum shift MIC assay (Protocol 5); assay type: cell-based; conditions: ATCC 35801 / ERDMAN
From the text: Protocol 5. Protocol for Mycobacterium tuberculosis Serum Shift MIC Assay
Media Prep: • 1. […] It was important that all media and supplements were sterilized prior to MICs. • 2. Prepared all media below and inoculated as described in next section. Tested all compounds against Mtb using each media. • a. […] 7H9+0.2% glycerol+2 g/L dextrose+0.85 g/L NaCl+0.003 g/L catalase (0% FBS). • c. 2×7H9+0.2% glycerol+2 g/L dextrose+0.85 g/L NaCl+0.003 g/L catalase combined with equal volume Fetal Bovine Serum (50% FBS).
Inoculum Prep: • 1. […] Typically plates were two to three weeks of age when used for this assay due to the slow growth of this organism in culture. • 2. Vortexed well, then sonicated in water bath for 30 sec providing a suspension of ˜10^8 cells/ml. […] Prepared inoculum in each of the three media formulations by diluting the BBL Prompt suspension 1/200 (for example: transferred 0.2 ml of cells to 40 ml of medium) to obtain a starting cell density of ˜10^6 cells/ml. • 4.
After 24 hours the fluorescence of each well was measured at Excitation 492 nm, Emission 595 nm.
Percent inhibition by a given compound was calculated as follows: Percent inhibition=100−([well fluorescence-average background fluorescence]/[DMSO control−average background fluorescence]×100).

[9] = tested on: Proteus mirabilis; assay: Gyrase MIC against Gram negatives, microdilution broth method (Protocol 2); assay type: cell-based; conditions: 12 isolates tested
[10] = M. tuberculosis Erdman ATCC 35801, read-out: MIC
[11] = M. tuberculosis Erdman ATCC 35801 with Mouse Serum

S. aureus TopoIV enzyme, sequence (P0C1S7 whole entry): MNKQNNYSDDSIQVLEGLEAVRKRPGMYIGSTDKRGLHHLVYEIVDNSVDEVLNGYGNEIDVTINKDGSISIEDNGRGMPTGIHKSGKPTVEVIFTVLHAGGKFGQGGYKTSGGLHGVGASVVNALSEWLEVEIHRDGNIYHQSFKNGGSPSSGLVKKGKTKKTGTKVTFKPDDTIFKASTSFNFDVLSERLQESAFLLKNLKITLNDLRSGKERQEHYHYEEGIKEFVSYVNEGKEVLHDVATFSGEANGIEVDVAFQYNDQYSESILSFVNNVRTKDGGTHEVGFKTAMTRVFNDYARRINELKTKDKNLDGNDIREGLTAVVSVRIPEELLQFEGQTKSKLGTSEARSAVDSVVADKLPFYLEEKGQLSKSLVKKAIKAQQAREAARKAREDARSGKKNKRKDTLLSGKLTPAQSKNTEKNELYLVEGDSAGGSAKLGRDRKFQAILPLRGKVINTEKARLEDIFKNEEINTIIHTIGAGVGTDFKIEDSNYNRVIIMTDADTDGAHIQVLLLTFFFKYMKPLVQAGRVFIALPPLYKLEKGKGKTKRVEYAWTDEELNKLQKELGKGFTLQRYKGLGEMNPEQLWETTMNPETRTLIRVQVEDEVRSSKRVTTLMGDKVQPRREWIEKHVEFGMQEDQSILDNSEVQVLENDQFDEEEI
S. aureus TopoIV enzyme, sequence (P0C1U9 whole entry partner): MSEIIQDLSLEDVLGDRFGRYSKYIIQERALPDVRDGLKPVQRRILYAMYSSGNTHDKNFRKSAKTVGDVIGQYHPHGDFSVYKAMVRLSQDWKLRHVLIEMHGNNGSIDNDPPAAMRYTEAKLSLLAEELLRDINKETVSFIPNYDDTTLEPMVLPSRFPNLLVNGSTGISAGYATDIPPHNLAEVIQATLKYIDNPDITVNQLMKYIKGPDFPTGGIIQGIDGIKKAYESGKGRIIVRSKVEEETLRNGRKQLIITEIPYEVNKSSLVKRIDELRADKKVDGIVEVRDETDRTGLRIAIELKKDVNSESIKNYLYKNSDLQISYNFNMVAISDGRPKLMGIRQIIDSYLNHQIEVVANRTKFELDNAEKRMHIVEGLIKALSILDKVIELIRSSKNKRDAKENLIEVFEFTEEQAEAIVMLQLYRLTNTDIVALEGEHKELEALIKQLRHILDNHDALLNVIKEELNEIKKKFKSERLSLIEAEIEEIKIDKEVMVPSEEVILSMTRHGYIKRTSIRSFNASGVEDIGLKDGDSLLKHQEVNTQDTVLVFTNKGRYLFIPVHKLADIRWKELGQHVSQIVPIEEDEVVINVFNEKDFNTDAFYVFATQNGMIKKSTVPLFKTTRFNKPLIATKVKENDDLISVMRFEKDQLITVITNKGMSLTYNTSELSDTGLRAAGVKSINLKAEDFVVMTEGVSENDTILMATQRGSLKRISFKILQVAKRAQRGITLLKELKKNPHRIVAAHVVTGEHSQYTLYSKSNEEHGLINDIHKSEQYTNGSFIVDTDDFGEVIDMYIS

CCNC(=O)Nc1nc2cc(-c3cnc(C(C)(C)OP(=O)([O-])[O-])nc3)c(F)c([C@H]3CCCO3)c2[nH]1.[Na+].[Na+] [Compound W, disodium (R)-2-(5-(2-(3-ethylureido)-6-fluoro-7-(tetrahydrofuran-2-yl)-1H-benzo[d]imidazol-5-yl)pyrimidin-2-yl)propan-2-yl phosphate]
conversion of Compound W to Compound 23 [1]: rapidly converts to Compound 23 | IC50 [2]: 150 nM | Ki [2]: 30 nM

CCNC(=O)Nc1nc2cc(-c3cnc(C(C)(C)O)nc3)c(F)c([C@H]3CCCO3)c2[nH]1 [Compound 23, 1-ethyl-3-[6-fluoro-5-[2-(1-hydroxy-1-methyl-ethyl)pyrimidin-5-yl]-7-[(2R)-tetrahydrofuran-2-yl]-1H-benzimidazol-2-yl]urea]
clinical signs, body weights, electrocardiography, clinical pathology, organ weights ([3]; doses up to 200 mg/kg/day): no clinical signs, or changes in body weights, electrocardiography parameters, clinical pathology parameters, or organ weights | macroscopic or microscopic findings ([3]; doses up to 200 mg/kg/day): no macroscopic or microscopic findings | no observed effect level (NOEL) ([3]; male Cynomolgus monkeys, oral gavage once per day for 7 days): 200 mg/kg/day | exposures for different dosage levels ([3]; male Cynomolgus monkeys, toxicokinetics): dose related

CCNC(=O)Nc1nc2cc(-c3cnc(C(C)(C)O)nc3)c(F)c([C@H]3CCCO3)c2[nH]1 [Compound 23A, methanesulfonic acid salt of 1-ethyl-3-[6-fluoro-5-[2-(1-hydroxy-1-methyl-ethyl)pyrimidin-5-yl]-7-[(2R)-tetrahydrofuran-2-yl]-1H-benzimidazol-2-yl]urea]
MIC ([4]; M. abscessus BB1): 2 µg/mL | MIC ([4]; M. abscessus BB2): 1 µg/mL | MIC ([4]; M. abscessus BB3): 0.5 µg/mL | MIC ([4]; M. abscessus BB4): 2 µg/mL | MIC ([4]; M. abscessus BB5): 0.5 µg/mL | MIC ([4]; M. abscessus BB6): 0.5 µg/mL | MIC ([4]; M. abscessus BB8): 0.5 µg/mL | MIC ([4]; M. abscessus LT 949): 1 µg/mL | MIC ([4]; M. abscessus MC 5812): 1 µg/mL | MIC ([4]; M. abscessus MC 5901): 1 µg/mL | MIC ([4]; M. abscessus MC 5908 (second listing, r109)): 1 µg/mL | MIC ([4]; M. abscessus MC 5922): 0.25 µg/mL | MIC ([4]; M. abscessus MC 5931): 0.5 µg/mL | MIC ([4]; M. abscessus MC 5960): 0.5 µg/mL | MIC ([4]; M. abscessus MC 6005): 1 µg/mL | MIC ([4]; M. abscessus MC 6025): 0.75 µg/mL | MIC ([4]; M. abscessus MC 6111): 0.5 µg/mL | MIC ([4]; M. abscessus MC 6136): 0.5 µg/mL | MIC ([4]; M. abscessus MC 6142): 0.5 µg/mL | MIC ([4]; M. abscessus MC 6153): 1 µg/mL | MIC ([5]; M. kansasii 303): 0.03 µg/mL | MIC ([5]; M. kansasii 379): < 0.015 µg/mL | MIC ([6]; M. avium 3404.4): 0.23 µg/mL | MIC ([6]; M. avium Far): 0.23 µg/mL | MIC ([6]; Mycobacterium avium 103): 0.18 µg/mL | MIC ([7]; ATCCBAA84, Stenotrophomonas maltophilia ATCC BAA-84): > 8 µg/mL | MIC ([7]; Stenotrophomonas maltophilia ATCC13637): > 8 µg/mL | MIC [8, 10]: 0.03 µg/mL | MIC [8, 11]: 0.5 µg/mL | MIC90 [9]: > 8 µg/mL

CCNC(=O)Nc1nc2cc(-c3cnc(C(C)(C)O)nc3)cc([C@H]3CCCO3)c2[nH]1 [Compound 13, methanesulfonic acid salt of 1-ethyl-3-[5-[2-(1-hydroxy-1-methyl-ethyl)pyrimidin-5-yl]-7-[(2R)-tetrahydrofuran-2-yl]-1H-benzimidazol-2-yl]urea]
MIC ([6]; M. avium 3404.4): 0.94 µg/mL | MIC ([6]; M. avium Far): 0.94 µg/mL | MIC ([6]; Mycobacterium avium 103): 0.47 µg/mL | MIC [8, 10]: 0.045 µg/mL | MIC [8, 11]: 2 µg/mL | MIC90 [9]: > 8 µg/mL
